Results on 21 molecules are retold here after US5686424A, “2-oxoethyl derivatives as immunosuppressants” (Miles Inc., priority 1995, dated 1997).

pIC50: −log10 of the molar value. Where a name gives a salt, the structure may show the parent alone.

For assay [1], the target named is FKBP (Homo sapiens, UniProt P62942). Description: PPIase Inhibition Assay. It is filed as biochemical. As to conditions: concentration of inhibitor required for 50% inhibition of enzyme activity; FKBP, substrate Succinyl-Ala-Phe-Pro-Phe-para-nitroanilide; TABLE I. Summed up:
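Chymotrypsin-coupled isomerization of Succinyl-Ala-Phe-Pro-Phe-para-nitroanilide by FKBP in ice-cold 25 mM HEPES pH 7.8, 100 mM NaCl, compound in DMSO. A390 followed 90 sec; first-order rate constants give % activity remaining after subtracting uncatalyzed rate; IC50 by linear regression of V-/V+ versus concentration.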

The subject of assay [2] is human T-cells. Briefly: Suppression of Human T-Cell Proliferation Assay (PHA-stimulated, [3H]-thymidine incorporation). As to conditions: concentration inhibiting [3H]-thymidine incorporation of PHA-stimulated T-cells by 50%, 72 hours; TABLE 2; read-out: IC50. It is filed as cell-based. In short, it runs like this: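 SRBC-rosette-purified human peripheral T-cells stimulated with PHA-M (40 μg/ml stock) and compound dilutions, in duplicate, for 72 h at 37° C. Proliferation measured by [3H]-thymidine incorporation during the final 6 h, read by liquid scintillation counting.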
A general note: Uptake of a labelled nucleoside into DNA is a usual measure of proliferation.

Assay [3] concerns NF-AT. Description: NF-AT Inhibition Assay Directed β-Galactosidase Expression in FGL-5 cells. As to conditions: 50% inhibition of NF-AT directed β-galactosidase activity in FGL-5 cells stimulated with phorbol dibutyrate and ionomycin; TABLE 3. It is filed as cell-based. Here is the method: 3) NF-AT Assay Stimulation of T-cells leads to the appearance of several transcription factors, including one designated "NF-AT". These factors are involved in regulation of gene expression required for immunologic activation. Some of these transcription factors appear to have functions in a wide variety of cell types. By contrast, NF-AT is found primarily in T-cells and its role is restricted to early gene activation. […] Inhibition of NF-AT activity is measured using FGL-5 cells. FGL-5 is a cloned line of stably transfected Jurkat T-cells that contain two construct in which three tandem copies of the NF-AT DNA binding site direct transcription of both murine CD8 and the lacZ gene, encoding β-galactosidase ([…] et al., 1990, Genes & Development 4:1823). When these cells are stimulated with phorbol esters which activate protein kinase C and calcium ionophore to raise the intracellular calcium concentration, transcriptionally active NF-AT is produced. In T-cells, this normally leads to the expression of IL-2, T-cell growth factor. However, in FGL-5 cells NF-AT activation leads to the production of β-galactosidase which can be detected using an appropriate substrate. […] NF-AT Inhibition Assay Directed β-Galactosidase Expression This assay was performed essentially as described (Bierer et al., 1990, Proc. Natl. Acad. Sci. 87:9231). […] The assays were done with exponentially growing cells whose density was not greater than 0.5 million cells/ml. The cells were resuspended to 3 million cells/ml in medium and 0.1 ml was added to wells of a 96-well plate. The compounds of the present invention were dissolved in either ethanol or dimethylsulfoxide at 10 mM and […] of various dilutions in medium were added to cells in duplicate wells. Treatment controls consisted of duplicate wells containing 0.5 ml/well of either medium, ethanol or dimethylsulfoxide. The ethanol and dimethyl sulfoxide were at the same concentration as was used for the compounds. […] Phorbol dibutyrate (Sigma) and Ionomycin (Calbiochem) were dissolved at 50 μg/ml and 2 mM, respectively and stored at -70° C. […] For unstimulated cell controls, 0.5 ml/well of medium was added to duplicate wells. The plates were incubated overnight (16-18 hours) at 37° C. in a humidified atmosphere of 5% CO2 and air. β-galactosidase activity was measured as the fluorescence generated by the cleavage of 4-methyl umbelliferyl-β-D-galactoside (Sigma) at the β-galactoside bond. After overnight incubation, the cells were centrifuged at 500×g for 3 minutes in the 96-well plates and washed 3 times with PBS. […] The percent inhibition by each concentration of the compounds was calculated as: […]

Sequence of FKBP (P62942 whole entry): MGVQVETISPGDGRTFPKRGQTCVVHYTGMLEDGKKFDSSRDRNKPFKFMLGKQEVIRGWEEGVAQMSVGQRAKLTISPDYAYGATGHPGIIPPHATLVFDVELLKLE

Broadly, the pIC50 is the IC50 on a negative log10 scale, so that one unit is a factor of ten. As for `CCC(OC(=O)CN1CCC[C@H]1C(=O)N[C@H](C(=O)NCc1ccccc1)[C@@H](C)CC)c1ccccc1` (stereo partly drawn) [Example 86, L-Isoleucine, N-[1-(2-(1-Phenylpropoxy)-2-Oxoethyl)-L-Prolyl] Benzylamide], the pIC50 in assay [1] was 6.06; in assay [2], 4.66; in assay [3], 4.89.
On the same counts, the results for `CC[C@H](C)[C@H](NC(=O)[C@@H]1CCCN1CC(=O)OCC1(c2ccccc2)CCCCC1)C(=O)NCc1ccccc1` [Example 87, L-Isoleucine, N-[1-(2-(1-Phenyl-1-Cyclohexylmethoxy)-2-Oxoethyl)-L-Prolyl] Benzylamide] are under 5.30, 5.10 and 5.22.
For `CC[C@H](C)[C@H](NC(=O)[C@@H]1CCCN1CC(=O)OC(CN1CCOCC1)c1ccccc1)C(=O)NCc1ccccc1` (stereo partly drawn) [Example 88, L-Isoleucine, N-[1-(2-(1-Phenyl-2-(4-Morpholino)Ethoxy)-2-Oxoethyl)-L-Prolyl] Benzylamide], in that order: over 5.30, 4.80 and 4.89.
On the same counts, the results for `CC[C@H](C)[C@H](NC(=O)[C@@H]1CCCN1CC(=O)OC1(C)C2CC3CC(C2)CC1C3)C(=O)NCc1ccccc1` (stereo partly drawn) [Example 89, L-Isoleucine, N-[1-(2-(2-Oxy-2-Methyladamant-2-yl)-2-Oxoethyl)-L-Prolyl] Benzylamide] are 6.92, 5.10 and 5.30.
`CC[C@H](C)[C@H](NC(=O)[C@@H]1CCCN1CC(=O)NCC12CC3CC(CC(C3)C1)C2)C(=O)NCc1ccccc1` [Example 91, L-Isoleucine, N-[1-(Adamant-1-ylmethylcarbamoylmethyl)-L-Prolyl] Benzylamide]: the pIC50 is over 5.30 in assay [1], 5.40 in assay [2] and 4.59 in assay [3].
In the case of `CC[C@H](C)[C@H](NC(=O)[C@@H]1CCCN1CC(=O)C1CCC(C(C)(C)C)CC1)C(=O)NCc1ccccc1` (stereo partly drawn) [Example 96, L-Isoleucine, N-[1-(2-(4-tert-Butylcyclohexyl)-2-Oxoethyl)-L-Prolyl] Benzylamide], the pIC50 in assay [1] is over 5.30; in assay [2], 5.10; in assay [3], 4.62.
As to `CC[C@H](C)[C@H](NC(=O)[C@@H]1CCCN1CC(=O)C1CC2CCC1C2)C(=O)NCc1ccccc1` (stereo partly drawn) [Example 97], the pIC50 in assay [1] was over 5.30; in assay [2] it was 4.92; in assay [3], 4.49.
As for `CC[C@H](C)[C@H](NC(=O)[C@@H]1CCCN1CC(=O)c1cc(OC)c(OC)c(OC)c1)C(=O)NCc1ccccc1` [Example 98, L-Isoleucine, N-[1-(2-(3,4,5-Trimethoxyphenyl)-2-Oxoethyl)-L-Prolyl] Benzylamide], the pIC50 in assay [1] is over 5.30; in assay [2] it was 5.15; in assay [3], under 4.48.
For `CC[C@H](C)[C@H](NC(=O)[C@@H]1CCCN1CC(=O)C1CCc2ccccc2O1)C(=O)NCc1ccccc1` (stereo partly drawn) [Example 99, L-Isoleucine, N-[1-(2-(Chroman-2-yl)-2-Oxoethyl)-L-Prolyl] Benzylamide Hydrochloride Salt], in that order: 5.30, under 4.82 and under 4.82.
In the case of `CC[C@H](C)[C@H](NC(=O)[C@@H]1CCCN1CC(=O)c1cc2ccccc2o1)C(=O)NCc1ccccc1` [Example 100, L-Isoleucine, N-[1-(2-(Benzofuran-2-yl)-2-Oxoethyl)-L-Prolyl] Benzylamide Hydrochloride Salt], the pIC50 in assay [1] is under 5.30; in assay [2] it was under 4.82; in assay [3], under 4.82.
On to `CC[C@H](C)[C@H](NC(=O)[C@@H]1CCCN1CC(=O)c1cccc(OC(=O)c2ccccc2)c1)C(=O)NCc1ccccc1` [Example 101, L-Isoleucine, N-[1-(2-(3-Benzoyloxyphenyl)-2-Oxoethyl)-L-Prolyl] Benzylamide], for which the pIC50 in assay [1] is over 5.30; in assay [2] it was under 4.82; in assay [3], under 4.82.
For the molecule `CC[C@H](C)[C@H](NC(=O)[C@@H]1CCCN1CC(=O)c1ccc(OC(=O)c2ccccc2)cc1)C(=O)NCc1ccccc1` [Example 102, L-Isoleucine, N-[1-(2-(4-Benzoyloxyphenyl)-2-Oxoethyl)-L-Prolyl] Benzylamide], the pIC50 was 5.30 in assay [1], under 4.82 in assay [2] and under 4.82 in assay [3].
`CC[C@H](C)[C@H](NC(=O)[C@@H]1CCCN1CC(=O)c1ccccc1OC(=O)c1ccccc1)C(=O)NCc1ccccc1` [Example 103, L-Isoleucine, N-[1-(2-(2-Benzoyloxyphenyl)-2-Oxoethyl)-L-Prolyl] Benzylamide]: the results for the pIC50 in assay [1], in assay [2] and in assay [3] were over 5.30, under 4.82 and under 4.82, respectively.
`CC[C@H](C)[C@H](NC(=O)[C@@H]1CCCN1CC(=O)c1cccc(Oc2ccccc2)c1)C(=O)NCc1ccccc1` [Example 104, L-Isoleucine, N-[1-(2-(3-Phenoxyphenyl)-2-Oxoethyl)-L-Prolyl] Benzylamide]: the figures for the pIC50 in assay [1], in assay [2] and in assay [3] were over 5.30, under 4.82 and under 4.82, respectively.
Consider `CC[C@H](C)[C@H](NC(=O)[C@@H]1CCCN1CC(=O)c1ccccc1Oc1ccccc1)C(=O)NCc1ccccc1` [Example 105, L-Isoleucine, N-[1-(2-(2-Phenoxyphenyl)-2-Oxoethyl)-L-Prolyl] Benzylamide], for which the pIC50 in assay [1] was over 5.30; in assay [2], under 4.82; in assay [3] it was under 4.82.
Take `CCOc1cc(C(=O)CN2CCC[C@H]2C(=O)N[C@H](C(=O)NCc2ccccc2)[C@@H](C)CC)cc(OCC)c1OCC` [Example 106, L-Isoleucine, N-[1-(2-(3,4,5-Triethoxyphenyl)-2-Oxoethyl)-L-Prolyl] Benzylamide]: the figures for the pIC50 in assay [1], in assay [2] and in assay [3] were over 5.30, under 4.82 and under 4.82, respectively.
Consider `CC[C@H](C)[C@H](NC(=O)[C@@H]1CCCN1CC(=O)c1ccc2c(c1)OCO2)C(=O)NCc1ccccc1` [Example 107, L-Isoleucine, N-[1-(2-(Benzo[1,3]dioxol-5-yl)-2-Oxoethyl)-L-Prolyl] Benzylamide], for which the pIC50 was over 5.30 in assay [1], 6.00 in assay [2] and 6.22 in assay [3].
On the same counts, the results for `CC[C@H](C)[C@H](NC(=O)[C@@H]1CCCN1CC(=O)c1ccc(OCCOc2ccccc2)cc1)C(=O)NCc1ccccc1` [Example 108, L-Isoleucine, N-[1-{2-Oxo-2-[4-(2-Phenoxyethoxy)-Phenyl]-Ethyl}-L-Prolyl] Benzylamide] are over 5.30, under 4.82 and under 4.82.
For `CC[C@H](C)[C@H](NC(=O)[C@@H]1CCCN1CC(=O)c1ccc(Oc2ccccc2)cc1)C(=O)NCc1ccccc1` [Example 109, L-Isoleucine, N-[1-(2-(4-Phenoxyphenyl)-2-Oxoethyl)-L-Prolyl] Benzylamide], in that order: over 5.30, 5.30 and under 4.82.
On the same counts, the results for `CC[C@H](C)[C@H](NC(=O)[C@@H]1CCCN1CC(=O)c1c(OC)cc(OC)cc1OC)C(=O)NCc1ccccc1` [Example 110, L-Isoleucine, N-[1-(2-(2,4,6-Trimethoxyphenyl)-2-Oxoethyl)-L-Prolyl] Benzylamide] are over 5.30, 5.22 and under 4.82.
As for `CC[C@H](C)[C@H](NC(=O)[C@@H]1CCCN1CC(=O)c1cccc(OC)c1OC)C(=O)NCc1ccccc1` [Example 111, L-Isoleucine, N-[1-(2-(2,3-Dimethoxyphenyl)-2-Oxoethyl)-L-Prolyl] Benzylamide], the pIC50 in assay [1] was over 5.30; in assay [2], 5.15; in assay [3], under 4.82.
